System: organisms isolated from the infected wounds at baseline
Test: Gentamicin MIC testing against all isolated pathogens up to 1024 μg/mL
Assay type: cell-based
Conditions: 87 of 95 organisms isolated at baseline
Protocol: Minimum inhibitory concentration (MIC) testing was performed on all isolated pathogens to determine susceptibility to systemic concentrations of levofloxacin, linezolid, vancomycin and oxacillin for gram-positive species and levofloxacin, aztreonam and piperacillin/tazobactam for gram-negative species. Definitive gentamicin MIC testing against all isolated pathogens up to 1024 μg/mL to mimic high local concentrations were also performed.

SMILES: CN[C@@H]1[C@@H](O)C(O[C@@H]2[C@@H](O)[C@H](O[C@H]3O[C@H]([C@@H](C)NC)CC[C@H]3N)[C@@H](N)C[C@H]2N)OC[C@]1(C)O (stereo partly drawn) [gentamicin, (3R,4R,5R)-2-{[(1S,2S,3R,4S,6R)-4,6-diamino-3-{[(2R,3R,6S)-3-amino-6-[(1R)-1-(methylamino)ethyl]oxan-2-yl]oxy}-2-hydroxycyclohexyl]oxy}-5-methyl-4-(methylamino)oxane-3,5-diol]
- organisms whose gentamicin MIC would be exceeded by a local concentration of up to 1000 μg/mL: 92%

Reference: patent US20120258174A1, “Methods for Treating Bacterial Infection” (Innocoll Technologies Limited, priority 2011, published 2012)
